Data reported in US7105521B2, “Eugenosedin-A based pharmacoligical agents” (Syn-Tech Chem & Pharm Co., Ltd., priority 2003, dated 2006).

Assays:
α1 receptors = test: Receptor binding, [3H]prazosin, rat cortex; parameters: species or system Wistar rat
Procedure: (§1) Drugs and chemicals. […] Eugenosedin-A synthesized in this laboratory was solvated in 50% absolute alcohol, 10% propylene glycol and further diluted with distilled water. All of the [^3H] ligand was purchased from New England Nuclear Corp. (Boston, Mass., U.S.A.).
(§2) Receptor binding studies. […] The homogenate was pressure filtered through muslin. Filtrate was centrifuged at 1000 g for 10 min. Supernatant was centrifuged at 10,000 g for 12 min at 4° C. The second supernatant was centrifuged at 30,000 g for 15 min at 4° C. The final pellet was re-suspended in assay buffer (75 mM Tris HCl, 25 mM MgCl2, pH 7.4). Protein content was determined by Bradford's method. Radioligand agents and membranes (200–300 μg) were incubated for 60 min at 25° C. with or without the addition of nonspecific binding agents, in a 75 mM Tris HCl buffer with 25 mM MgCl2, to make a final volume of 500 μl. In competitive-binding experiments, the competing agent was added directly to the incubation mixture. Incubation was terminated by addition of 1 ml of ice-cold assay buffer followed by immediate filtration through Whatman GF/C glass fiber filters supported on a 12-port filter manifold (Millipore). The filters were immediately washed 3 times with 5 ml of ice-cold assay buffer and dried in an oven at 60° C. for 2 hours before adding 5 ml of Triton-toluene-based scintillation fluid. Membrane-bound radioligand trapped in the filters was counted in a Beckman LS6500 scintillation system (Fullerton, Calif., U.S.A) with an efficiency of 45%. In each experiment, nonspecifically bound radioligand agents were determined by incubating membrane protein. Specific binding for each sample was obtained by deducting this value from the total binding of radioligand agents.

5-HT2A receptor = 5-HT2A receptor (Rattus norvegicus, UniProt P14842); test: Receptor binding, [3H]ketanserin, rat cortex; parameters: from tissue; host or cells: Wistar rat cortex membranes; species or system Wistar rat; settings: [3H]ketanserin, rat cortex
Procedure: as §1, §2

α2 receptors = test: Receptor binding, [3H]yohimbine, rat cortex; parameters: species or system Wistar rat
Procedure: as §1, §2

[1] = Micro-injection in NTS: BP and HR; format: in vivo, rats; settings: for pressor response and HR: NTS micro-injection, 0.03, 0.3 μmol, within 30 minutes after injection
Excerpt: Micro-injection in NTS. Rats were anesthetized and placed in a David-Kopf stereotaxic instrument. The cerebellum was exposed after removing the skin and occipital bone. […] At the end of experiments, the animals were sacrificed. The brain was removed and sectioned for histological confirmation of the drug application site.

IL-1β = test: Plasma cytokine immunoreactivity after LPS: IL-1β; format: in vivo, Wistar rats; settings: 3 hours after LPS 10 mg kg^−1 i.v.; pretreatment (eugenosedin-A 1 mg kg^−1 i.v.)
Procedure: (§3) Plasma cytokine immunoreactivity and blood glucose. Blood was collected from venous cannula, injected into ice-cold heparinized Eppendorf tubes and centrifuged at 1500 rpm for 10 min at 4° C. Plasma supernatant was stored at −70° C. until analyzed. Solid phase enzyme immunoassay that specifically detects murine IL-1β, IL-6, IFN-γ and TNF-α was used with a detection limit of >10 pg/ml (Endogen, U.S.A). Pretreatment with eugenosedin-A and other agents was performed 15 minutes before intravenous injection of LPS. Blood was collected from venous cannula. Blood glucose was measured with a glucose test strip (Glucotide, Bayer, U.S.A) at 1, 3 and 5 hours.

Blood glucose after LPS = format: in vivo, Wistar rats; settings: for initial hyperglycemic response to LPS: blood glucose at 1 and 3 hours after LPS; for hypoglycemic response to LPS: blood glucose at 5 hours after LPS
Procedure: as §3

LPS-induced hypotension = format: in vivo, Wistar rats; settings: LPS 10 mg kg^−1 i.v.; for LPS-induced hypotension: 15 mg kg^−1 i.v.; for development of hypotension after LPS injection and normalization of BP: i.v. pretreatment; for second prolonged hypotensive phase after LPS: pretreatment 0.5 and 1 mg kg^−1 i.v.
Procedure: Intravenous injection. The experiments were carried out as previously described (Wu B N. et al., Biochem. Pharmacol., 48:101–109, 1994). In brief, Wistar rats weighing 250–300 grams were anesthetized with pentobarbital sodium (50 mg kg^−1, i.p.). Following tracheal cannulation, systemic arterial BP and HR were recorded from the femoral artery by a pressure transducer (model P10EZ; Spectramed, Oxnard, Calif., U.S.A.) connected to a recorder (GOULD, Valley View, Ohio, Model P50). Body temperature was maintained at 37° C. by an electric heating pad. A femoral vein was cannulated for intravenous injection of drugs and LPS (10 mg kg^−1).

TNF-α = test: Plasma cytokine immunoreactivity after LPS: TNF-α; format: in vivo, Wistar rats
Procedure: as §3

IFN-γ = test: Plasma cytokine immunoreactivity after LPS: IFN-γ; format: in vivo, Wistar rats; settings: 1 hour after LPS administration
Procedure: as §3

α2-adrenoceptor = test: Intra-cisternal antagonism of clonidine-induced hypotension and bradycardia; format: in vivo, rats; settings: for hypotensive effect of clonidine: given 15 min before clonidine injection
Procedure: (§4) Intra-cisternal injections. […] Briefly, rats weighing 250–300 g were anaesthetized with pentobarbital sodium (50 mg kg^−1, i.p.) and mounted in a David-Kopf stereotaxic instrument (Yeh J L. et al., Brain. Res. Bull., 30:641–648, 1993). The calvarium was exposed and a 1 mm diameter trephine hole was drilled 1.8 mm lateral to the coronary and 1.5 mm posterior to the sagittal sutures. A cannula (0.7 mm O.D.) connected to a Hamilton syringe (RN-705, 5051) by PE-50 was advanced 4.7 mm into the brain using the electrode carrier.

[2] = Intra-cisternal injections: mean arterial BP and HR; format: in vivo, rats; settings: for effect on mean arterial BP and HR: eugenosedin-A and trazodone 0.3, 0.03 μmol, yohimbine 0.03 μmol
Procedure: as §4

[3] = Peroxyl radical scavenging, B-phycoerythrin/AAPH; format: biochemical
Procedure: The stoichiometric factors of the test compounds with hydrophilic peroxyl radicals were calculated by the equation as mentioned Ascorbic acid was used as a positive control.

[4] = 3 hours after LPS 10 mg kg^−1 i.v., pretreatment (eugenosedin-A 1 mg kg^−1 i.v.)
[5] = 5 hours after LPS 10 mg kg^−1 i.v., pretreatment

Sequence of 5-HT2A receptor (P14842 whole entry): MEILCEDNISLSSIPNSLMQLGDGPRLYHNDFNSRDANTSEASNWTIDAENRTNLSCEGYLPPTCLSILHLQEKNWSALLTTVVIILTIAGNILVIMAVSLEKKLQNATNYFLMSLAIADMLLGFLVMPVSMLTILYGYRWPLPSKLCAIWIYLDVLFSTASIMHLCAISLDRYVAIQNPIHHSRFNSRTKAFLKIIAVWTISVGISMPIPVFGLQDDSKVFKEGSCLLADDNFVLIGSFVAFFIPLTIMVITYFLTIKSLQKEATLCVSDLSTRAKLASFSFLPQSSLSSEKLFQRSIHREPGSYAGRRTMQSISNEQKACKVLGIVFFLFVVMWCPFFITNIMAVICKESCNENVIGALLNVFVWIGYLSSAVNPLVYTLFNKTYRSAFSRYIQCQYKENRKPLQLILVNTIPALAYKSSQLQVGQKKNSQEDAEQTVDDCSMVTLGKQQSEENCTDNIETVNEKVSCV

SMILES: O=C(c1ccc(F)cc1)C1CCN(CCn2c(=O)[nH]c3ccccc3c2=O)CC1 [ketanserin]
- order of α1 receptor binding potency (α1 receptors): prazosin >ketanserin >eugenosedin-A >methylsergide, propranolol and 5-HT
- order of potency on 5-HT2A receptors (5-HT2A receptor): ketanserin >methylsergide >eugenosedin-A >5-HT >propranolol >prazosin
- binding affinity for α2-adrenoceptors (α2 receptors): had binding affinities for α2-adrenoceptors
- order of α2 receptor binding potency (α2 receptors): prazosin >eugenosedin-A >ketanserin >methylsergide >propranolol and 5-HT

SMILES: NCCc1c[nH]c2ccc(O)cc12 [Compound 5-HT, serotonin]
- binding affinity for α1 receptors (α1 receptors): lower binding affinities for α1 receptors
- order of α1 receptor binding potency (α1 receptors): prazosin >ketanserin >eugenosedin-A >methylsergide, propranolol and 5-HT
- order of potency on 5-HT2A receptors (5-HT2A receptor): ketanserin >methylsergide >eugenosedin-A >5-HT >propranolol >prazosin
- order of α2 receptor binding potency (α2 receptors): prazosin >eugenosedin-A >ketanserin >methylsergide >propranolol and 5-HT

SMILES: CNCCC(Oc1ccc(C(F)(F)F)cc1)c1ccccc1 (stereo not shown) [fluoxetine]
- pressor response and HR [1]: mild, but significant, pressor responses and increased the HR

SMILES: Cl.N=C(N)NN [aminoguanidine, aminoguanidine HCl]
- LPS-induced increase in IL-1β (IL-1β): significantly inhibited
- initial hyperglycemic response to LPS (Blood glucose after LPS): inhibited the initial hyperglycemic response to LPS
- hypoglycemic response to LPS (Blood glucose after LPS): did not reverse the hypoglycemic response
- LPS-induced hypotension (LPS-induced hypotension): inhibited LPS-induced hypotension
- LPS-induced increase in TNF-α (TNF-α; [4]): significantly inhibited

SMILES: O=C1O[C@H]([C@@H](O)CO)C(O)=C1O [ascorbic acid]
- LPS-induced increase in IL-1β (IL-1β): significantly inhibited
- LPS-induced production of IFN-γ (IFN-γ): insignificantly enhanced
- initial hyperglycemic response to LPS (Blood glucose after LPS): inhibited the initial hyperglycemic response to LPS
- hypoglycemic response to LPS (Blood glucose after LPS): did not reverse the hypoglycemic response
- LPS-induced hypotension (LPS-induced hypotension): inhibited LPS-induced hypotension
- LPS-induced increase in TNF-α (TNF-α; [4]): significantly inhibited

SMILES: CC(C)NCC(O)COc1cccc2ccccc12 (stereo not shown) [propranolol]
- order of α1 receptor binding potency (α1 receptors): prazosin >ketanserin >eugenosedin-A >methylsergide, propranolol and 5-HT
- order of α2 receptor binding potency (α2 receptors): prazosin >eugenosedin-A >ketanserin >methylsergide >propranolol and 5-HT

SMILES: COC(=O)[C@@H]1[C@H]2C[C@H]3c4[nH]c5ccccc5c4CCN3C[C@@H]2CC[C@@H]1O [yohimbine]
- HR increase ([1]; NTS micro-injection, 0.03 μmol): up to 78 bpm
- pressor response ([1]; NTS micro-injection, 0.03 μmol): up to 13 mmHg
- LPS-induced increase in IL-1β (IL-1β): significantly inhibited
- LPS-induced production of IFN-γ (IFN-γ): insignificantly enhanced
- development of hypotension after LPS injection and normalization of BP (LPS-induced hypotension): normalized BP within 5 hours
- first immediate hypotensive phase after LPS (LPS-induced hypotension; pretreatment 0.5 mg kg^−1 i.v.): not affected
- first immediate hypotensive phase after LPS (LPS-induced hypotension; pretreatment 1 mg kg^−1 i.v.): attenuated it
- second prolonged hypotensive phase after LPS (LPS-induced hypotension): significantly reduced
- hypotensive effect of clonidine (α2-adrenoceptor): antagonized the hypotensive effect of clonidine
- clonidine-induced bradycardia (α2-adrenoceptor; low dose, 0.03 μmol): did not inhibit clonidine-induced bradycardia
- LPS-induced increase in TNF-α (TNF-α; [4]): significantly inhibited
- LPS-induced increase in TNF-α (TNF-α; [5]): significantly reduced
- increase of HR ([2]; 0.03 μmol): up to 78 bpm
- pressor response ([2]; 0.03 μmol): up to 13 mmHg
- effect on mean arterial BP and HR [2]: increased mean arterial BP and HR

SMILES: O=c1n(CCCN2CCN(c3cccc(Cl)c3)CC2)nc2ccccn12 [trazodone]
- pressor response and HR [1]: mild, but significant, pressor responses and increased the HR
- LPS-induced increase in IL-1β (IL-1β): significantly inhibited
- development of hypotension after LPS injection and normalization of BP (LPS-induced hypotension): normalized BP within 5 hours
- first immediate hypotensive phase after LPS (LPS-induced hypotension; pretreatment 0.5 mg kg^−1 i.v.): not affected
- first immediate hypotensive phase after LPS (LPS-induced hypotension; pretreatment 1 mg kg^−1 i.v.): attenuated it
- second prolonged hypotensive phase after LPS (LPS-induced hypotension): significantly reduced
- hypotensive effect of clonidine (α2-adrenoceptor): antagonized the hypotensive effect of clonidine
- LPS-induced increase in TNF-α (TNF-α; [4]): significantly inhibited
- LPS-induced increase in TNF-α (TNF-α; [5]): significantly reduced
- scavenging of AAPH-derived peroxyl radicals (B-phycoerythrin fluorescence, lag time) [3]: did not scavenge peroxyl radicals
- effect on mean arterial BP and HR [2]: increased mean arterial BP and HR

SMILES: CC[C@@H](CO)NC(=O)[C@@H]1C=C2c3cccc4c3c(cn4C)C[C@H]2N(C)C1 [methysergide]
- binding affinity for α1 receptors (α1 receptors): lower binding affinities for α1 receptors
- order of α1 receptor binding potency (α1 receptors): prazosin >ketanserin >eugenosedin-A >methylsergide, propranolol and 5-HT
- binding affinity for α2-adrenoceptors (α2 receptors): had binding affinities for α2-adrenoceptors
- order of α2 receptor binding potency (α2 receptors): prazosin >eugenosedin-A >ketanserin >methylsergide >propranolol and 5-HT
